Measured values as given in US8481536B2, “Benzotriazine inhibitors of kinases” (TargeGen, Inc., priority 2004, dated 2013).

Experiments:
Format in all cases: biochemical
[1] = target: Recombinant human Yes (Homo sapiens (Human), UniProt P07947); experiment: Yes kinase inhibition in vitro (luciferase-based residual ATP, KinaseGlo); details: ATP 3 μM, PTK2 substrate, 90 minutes at room temperature
Protocol: (§1) The ability of compounds of the present invention to inhibit the activity of three groups of kinases was tested. Kinases tested included the src family (primarily src and yes), some angiogenic growth factor receptors (Fgfr1, Vegfr, and Pdgfrβ) and the ephrin, EphB4. All kinase reactions were conducted in 96-well plates with a final reaction volume of 50 ul.
(§2) After reacting for about 90 minutes at room temperature, residual ATP was determined using a luciferase-based assay (KinaseGlo, Promega Corp.) as a measure of kinase activity. Data from four wells were then averaged and used to determine IC50 values for the test compounds (Prism software package, GraphPad Software, San Diego Calif.).
(§3) The test results for inhibition of Src kinase are presented in Table 1, and the test results for inhibition of some other kinases (i.e., Yes, EphB4, and Pdgfrβ) are presented in Table 2.

[2] = target: EphB4 (Homo sapiens (Human), UniProt P54760); experiment: EphB4 kinase inhibition in vitro (luciferase-based residual ATP); details: 6 uM ATP, poly(glu4tyr), 60 minutes at 37 C
Chain of EphB4 (P54760 16-987): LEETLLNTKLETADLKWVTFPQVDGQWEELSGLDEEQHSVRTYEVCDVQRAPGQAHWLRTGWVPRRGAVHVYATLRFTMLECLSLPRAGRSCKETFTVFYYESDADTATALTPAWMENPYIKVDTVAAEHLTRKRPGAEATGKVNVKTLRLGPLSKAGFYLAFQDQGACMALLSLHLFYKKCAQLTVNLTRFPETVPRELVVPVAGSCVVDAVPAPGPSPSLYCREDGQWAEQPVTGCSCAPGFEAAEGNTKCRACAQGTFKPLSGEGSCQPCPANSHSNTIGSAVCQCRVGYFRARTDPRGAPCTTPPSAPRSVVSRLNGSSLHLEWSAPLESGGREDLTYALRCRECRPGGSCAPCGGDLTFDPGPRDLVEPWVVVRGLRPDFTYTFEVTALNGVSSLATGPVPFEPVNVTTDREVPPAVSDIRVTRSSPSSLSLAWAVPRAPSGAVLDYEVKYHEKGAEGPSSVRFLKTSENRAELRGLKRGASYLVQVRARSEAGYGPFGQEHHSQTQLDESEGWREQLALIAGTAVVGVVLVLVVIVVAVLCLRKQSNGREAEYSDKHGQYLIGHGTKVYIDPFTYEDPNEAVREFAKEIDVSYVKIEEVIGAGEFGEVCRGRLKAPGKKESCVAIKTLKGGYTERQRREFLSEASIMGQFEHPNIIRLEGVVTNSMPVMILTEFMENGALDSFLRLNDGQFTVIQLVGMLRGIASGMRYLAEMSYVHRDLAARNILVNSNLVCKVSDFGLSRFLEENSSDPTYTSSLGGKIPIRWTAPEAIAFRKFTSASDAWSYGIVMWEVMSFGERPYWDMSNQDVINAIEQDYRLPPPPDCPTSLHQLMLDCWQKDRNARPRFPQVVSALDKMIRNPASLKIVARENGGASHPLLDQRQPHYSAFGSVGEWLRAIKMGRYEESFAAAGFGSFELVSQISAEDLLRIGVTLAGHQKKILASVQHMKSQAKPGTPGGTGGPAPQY
Protocol: as §1, §3

[3] = target: Pdgfrβ (Homo sapiens (Human), UniProt P09619); experiment: Pdgfrβ kinase inhibition in vitro (luciferase-based residual ATP); details: 500 nM ATP, PTK2 peptide, 60 minutes at 37 C; read-out: PDGFR IC50
Chain of Pdgfrβ (P09619 33-1106): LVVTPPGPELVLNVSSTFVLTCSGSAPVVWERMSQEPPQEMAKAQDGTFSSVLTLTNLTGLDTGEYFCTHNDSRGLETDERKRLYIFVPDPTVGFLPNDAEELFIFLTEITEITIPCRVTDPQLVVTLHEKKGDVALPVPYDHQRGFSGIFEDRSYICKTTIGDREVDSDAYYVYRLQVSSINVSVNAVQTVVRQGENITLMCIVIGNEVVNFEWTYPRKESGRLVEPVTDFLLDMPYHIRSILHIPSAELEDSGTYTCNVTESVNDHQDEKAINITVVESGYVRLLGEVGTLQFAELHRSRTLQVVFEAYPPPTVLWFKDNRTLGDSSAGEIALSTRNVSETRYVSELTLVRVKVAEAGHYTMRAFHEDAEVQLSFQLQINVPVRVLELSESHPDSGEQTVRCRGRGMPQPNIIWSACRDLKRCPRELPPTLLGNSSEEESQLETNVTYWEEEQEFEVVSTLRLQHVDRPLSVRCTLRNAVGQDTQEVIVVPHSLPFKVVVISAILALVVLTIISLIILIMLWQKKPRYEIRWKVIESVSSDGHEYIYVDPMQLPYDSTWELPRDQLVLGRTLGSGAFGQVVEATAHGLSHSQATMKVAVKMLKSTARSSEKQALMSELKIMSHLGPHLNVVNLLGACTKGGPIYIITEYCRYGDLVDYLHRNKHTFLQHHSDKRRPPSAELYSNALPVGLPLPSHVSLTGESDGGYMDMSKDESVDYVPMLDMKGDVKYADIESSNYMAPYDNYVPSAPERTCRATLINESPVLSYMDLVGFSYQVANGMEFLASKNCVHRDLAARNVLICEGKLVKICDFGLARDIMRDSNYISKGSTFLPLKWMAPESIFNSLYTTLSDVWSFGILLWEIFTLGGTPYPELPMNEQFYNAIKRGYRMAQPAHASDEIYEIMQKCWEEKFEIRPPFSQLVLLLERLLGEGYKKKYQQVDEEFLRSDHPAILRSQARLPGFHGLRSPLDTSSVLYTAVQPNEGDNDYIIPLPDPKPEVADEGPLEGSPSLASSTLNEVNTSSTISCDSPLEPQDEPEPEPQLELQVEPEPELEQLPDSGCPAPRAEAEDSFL
Protocol: as §1
Pdgfrβ (0.16 ug/well, Panvera/Invitrogen) 500 nM ATP and the PTK2 peptide (700 uM) were combined with compound and reaction buffer as noted above for src. The reaction was incubated for 60 minutes at 37 C, and the residual ATP concentration was determined using the luciferase-based technique also noted above.
as §3

[4] = target: Recombinant human c-Src (Homo sapiens (Human), UniProt P12931); experiment: Src kinase inhibition in vitro (luciferase-based residual ATP, KinaseGlo); details: ATP 3 μM, PTK2 substrate, 90 minutes at room temperature
Chain of Recombinant human c-Src (P12931 whole entry, looked up): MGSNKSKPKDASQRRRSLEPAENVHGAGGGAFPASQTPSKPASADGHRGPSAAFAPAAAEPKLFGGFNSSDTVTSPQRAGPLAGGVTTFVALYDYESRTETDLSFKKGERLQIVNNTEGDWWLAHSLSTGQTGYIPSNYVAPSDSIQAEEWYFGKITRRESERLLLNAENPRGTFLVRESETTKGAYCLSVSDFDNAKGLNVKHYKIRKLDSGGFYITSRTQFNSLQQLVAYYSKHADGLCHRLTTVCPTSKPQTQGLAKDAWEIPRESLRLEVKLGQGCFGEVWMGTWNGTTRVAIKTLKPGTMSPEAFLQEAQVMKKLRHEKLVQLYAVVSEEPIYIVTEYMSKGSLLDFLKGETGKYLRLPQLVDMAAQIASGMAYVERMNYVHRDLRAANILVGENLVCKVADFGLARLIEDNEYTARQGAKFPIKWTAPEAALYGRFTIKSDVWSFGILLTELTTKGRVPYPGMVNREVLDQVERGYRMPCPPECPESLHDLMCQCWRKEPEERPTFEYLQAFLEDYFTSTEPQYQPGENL
Protocol: as §1, §2, §3

Chain of Recombinant human Yes (P07947 whole entry): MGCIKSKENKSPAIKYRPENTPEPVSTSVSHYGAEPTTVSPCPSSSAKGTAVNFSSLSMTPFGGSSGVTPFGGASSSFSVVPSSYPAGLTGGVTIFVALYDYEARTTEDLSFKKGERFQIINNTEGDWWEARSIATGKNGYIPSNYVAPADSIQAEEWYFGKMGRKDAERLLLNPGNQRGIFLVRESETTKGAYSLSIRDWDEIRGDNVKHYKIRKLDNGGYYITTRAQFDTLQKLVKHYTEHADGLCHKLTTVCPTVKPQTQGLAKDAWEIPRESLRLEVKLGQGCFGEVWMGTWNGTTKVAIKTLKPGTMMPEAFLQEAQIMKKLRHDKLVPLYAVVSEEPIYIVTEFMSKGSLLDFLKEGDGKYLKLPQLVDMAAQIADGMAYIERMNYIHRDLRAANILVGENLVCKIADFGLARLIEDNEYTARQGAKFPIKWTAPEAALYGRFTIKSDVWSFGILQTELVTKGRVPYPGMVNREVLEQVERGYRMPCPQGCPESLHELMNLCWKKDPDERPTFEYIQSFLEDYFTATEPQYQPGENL

IC50 [3] [nM] | IC50 [4] [nM] | Structure (SMILES) | IC50 [1] [nM] | IC50 [2] [nM]
69.1 | 39.5 | Cc1cccc(C)c1-c1cc(C)c2nc(Nc3cccc(OCCN4CCN(C)CC4)c3)nnc2c1 [[7-(2,6-dimethyl-phenyl)-5-methyl-benzo[1,2,4]triazin-3-yl]-{3-[2-(4-methyl-piperazin-1-yl)-ethoxy]-phenyl}-amine] |  | 
73.7 | 20.4 | Cc1cc(F)ccc1-c1cc2nnc(Nc3ccc(S(=O)(=O)NCCN4CCCC4)cc3)nc2cc1C [4-[7-(4-fluoro-2-methyl-phenyl)-6-methyl-benzo[1,2,4]triazin-3-ylamino]-N-(2-pyrrolidin-1-yl-ethyl)-benzenesulfonamide] |  | 
48.1 | 10.5 | Cc1cc2nc(Nc3ccc(S(=O)(=O)NCCN4CCCC4)cc3)nnc2cc1-c1c(C)cccc1C [4-[7-(2,6-dimethyl-phenyl)-6-methyl-benzo[1,2,4]triazin-3-ylamino]-N-(2-pyrrolidin-1-yl-ethyl)-benzenesulfonamide] |  | 

Structure (SMILES) | IC50 [3] [nM] | IC50 [4] [nM] | IC50 [1] [nM] | IC50 [2] [nM]
Cc1cc(-c2cc(O)ccc2Cl)cc2nnc(Nc3ccc(OCCN4CCCC4)cc3)nc12 [[7-(2-chloro-5-hydroxy-phenyl)-5-methyl-benzo[1,2,4]triazin-3-yl]-[4-(2-pyrrolidine-1-yl-ethoxy)-phenyl]-amine] | 1.1 | 1.6 | 0.5 | 15.9
